Measurements from patent US4477458A, “Thiazolidine derivatives and their mucolytic compositions and methods” (Camillo Corvi S.p.A., priority 1981, dated 1984).
Structures can show the parent of a compound that is named as a salt.

Key:
[1] = test system: mucus production of rabbit; experiment: Activity on mucus production of rabbit (method of R. Scuri and Coll.); format: in vivo; settings: for Mucoproduction at hours 0 - 4: mean ± E.S.
gastric mucin of the pig = experiment: "in vitro" viscosity of gastric mucin of the pig (Contraves Rehomat microviscosimeter); settings: conc. 2 %; for Viscosity of gastric mucin: 0.1 ml; for Viscosity of gastric mucin, Var. %: vs Mucin + H2O
Method: The pharmacological activity was measured by studying the effect on the compound (CO/1177) on: (c) "in vitro" viscosity of gastric mucin of the pig by using, for the viscometer measures, a Contraves Rehomat microviscosimeter at 15 automatic scanning speeds.

Acute toxicity, mouse = settings: in vivo
Method: (§1) The acute and subacute toxicity tests were performed by using Swiss mice and Wistar rats of both sexes.

[2] = test system: mucus of animals made bronchitic experimentally; experiment: Fluidizing activity - viscosity of mucus of experimentally bronchitic animals (Contraves Rehomat microviscosimeter); format: in vivo, rabbit; settings: 20 mg/kg i.v.
Method: (§2) The pharmacological activity was measured by studying the effect on the compound (CO/1177) on:
(§3) (b) viscosity of mucus of sound animals (rabbits) and/or of animals made bronchitic experimentally by using, for the viscosimeter measures, a Contraves Rehomat microviscosimeter at 15 automatic scanning speeds;

Acute toxicity, rabbit = settings: in vivo, iv
Acute toxicity, rat = settings: in vivo
Method: as §1

[3] = test system: mucus of sound animals (rabbits); experiment: Fluidizing activity - viscosity of mucus of sound animals (Contraves Rehomat microviscosimeter); format: in vivo, rabbit; settings: 20 mg/kg i.v.
Method: as §2, §3

[4] = Oryctolagus cuniculus, iv, 10 mg/kg i.v., 0-4 h vs -4-0 h, read-out: Mucoproduction Var. %
[5] = Oryctolagus cuniculus, po, 400 mg/kg os, 0-4 h vs -4-0 h, read-out: Mucoproduction Var. %

Question: With `O=C(O)c1cccnc1C(=O)N1CCSC1` [CO/1242, 2-(1,3-thiazolidin-3-yl)-carbonyl-3-pyridine-carboxylic acid (Na salt)] as the molecule, how does the “Mucoproduction at hours 0 - 4” value ([1]; 10 mg/kg i.v.) read?
Answer: 31.030 ± 2.840 mg/h

Question: And the change in vivo at 10 mg/kg [1, 4]?
Answer: 39%

Question: For `O=C(O)c1ccccc1C(=O)N1CCSC1c1ccccc1` (stereo not drawn) [CO/1220, 2-[(2-phenyl)-1,3-thiazolidin-3-yl]-carbonyl-benzoic acid (Na salt)], which “Mucoproduction at hours 0 - 4” value ([1]; 10 mg/kg i.v.) is on record?
Answer: 31.300 ± 2.240 mg/h

Question: What about the change in vivo at 10 mg/kg [1, 4] of the same molecule?
Answer: 43.5%

Question: What does the source list for `CC(S)C(=O)NCC(=O)O` (racemic) [Mercaptopropionylglycine]?
Answer: Mucoproduction at hours 0 - 4 ([1]; 10 mg/kg i.v.): 32.121 ± 1.013 mg/h; Mucoproduction at hours 0 - 4 ([1]; 20 mg/kg i.v.): 36.630 ± 1.565 mg/h; Mucoproduction at hours 0 - 4 ([1]; 400 mg/kg os): 32.053 ± 1.292 mg/h; Mucoproduction at hours 0 - 4 ([1]; 600 mg/kg os): 34.432 ± 1.813 mg/h; change in vivo at 10 mg/kg [1, 4]: 33.8%; change in vivo at 20 mg/kg ([1]; Oryctolagus cuniculus, iv, 20 mg/kg i.v., 0-4 h vs -4-0 h, read-out: Mucoproduction Var. %): 43%; change in vivo at 400 mg/kg [1, 5]: 45%; change in vivo at 600 mg/kg ([1]; Oryctolagus cuniculus, po, 600 mg/kg os, 0-4 h vs -4-0 h, read-out: Mucoproduction Var. %): 49.9%

Question: Which results are given for `CC1=CCC(CC2SCCN2C(=O)c2ccccc2C(=O)[O-])C1(C)C.[Na+]` (stereo not drawn) [CO/1178, 2-[(2-{2',2',3'-trimethyl-cyclopenten-3'yl}-methyl)-1,3-thiazolidin-3-yl]-carbonyl-benzoic acid, Na salt]?
Answer: Mucoproduction Var. % ([1]; 10 mg/kg i.v., 0-4 h vs -4-0 h): +19.9%; Mucoproduction at hours 0 - 4 ([1]; 10 mg/kg i.v.): 26.890 ± 6.210 mg/h

Question: Which results are given for `O=C(O)c1ccccc1C(=O)N1CCSC1` [CO/1177, 2-(1,3-thiazolidin-3-yl)-carbonyl-benzoic acid (Na salt)]?
Answer: Viscosity of gastric mucin (gastric mucin of the pig; speed 17.4 g/min): 24.87 cps; Viscosity of gastric mucin (gastric mucin of the pig; speed 25 g/min): 22.39 cps; Viscosity of gastric mucin (gastric mucin of the pig; speed 33.6 g/min): 24.05 cps; Viscosity of gastric mucin (gastric mucin of the pig; speed 44.3 g/min): 22.92 cps; Viscosity of gastric mucin (gastric mucin of the pig; speed 56.1 g/min): 23.14 cps; Viscosity of gastric mucin (gastric mucin of the pig; speed 77.9 g/min): 20.91 cps; Viscosity of gastric mucin (gastric mucin of the pig; speed 113.2 g/min): 20.88 cps; Viscosity of gastric mucin (gastric mucin of the pig; speed 152 g/min): 18.81 cps; Viscosity of gastric mucin (gastric mucin of the pig; speed 200 g/min): 17.24 cps; Viscosity of gastric mucin (gastric mucin of the pig; speed 266.8 g/min): 15.48 cps; Viscosity of gastric mucin (gastric mucin of the pig; speed 352 g/min): 14.29 cps; Viscosity of gastric mucin, Var. % (gastric mucin of the pig; speed 17.4 g/min): -10.9%; Viscosity of gastric mucin, Var. % (gastric mucin of the pig; speed 25 g/min): -19.1%; Viscosity of gastric mucin, Var. % (gastric mucin of the pig; speed 33.6 g/min): -10.1%; Viscosity of gastric mucin, Var. % (gastric mucin of the pig; speed 44.3 g/min): -14.1%; Viscosity of gastric mucin, Var. % (gastric mucin of the pig; speed 56.1 g/min): -11%; Viscosity of gastric mucin, Var. % (gastric mucin of the pig; speed 77.9 g/min): -15.4%; Viscosity of gastric mucin, Var. % (gastric mucin of the pig; speed 113.2 g/min): -8.1%; Viscosity of gastric mucin, Var. % (gastric mucin of the pig; speed 152 g/min): -9.1%; Viscosity of gastric mucin, Var. % (gastric mucin of the pig; speed 200 g/min): -8.1%; Viscosity of gastric mucin, Var. % (gastric mucin of the pig; speed 266.8 g/min): -10%; Viscosity of gastric mucin, Var. % (gastric mucin of the pig; speed 352 g/min): -7.1%; LD50 (Acute toxicity, mouse; iv): 3000 mg/kg; LD50 (Acute toxicity, mouse; po): > 5000 mg/kg; Viscosity, time 0-24 ([2]; speed 17.4 g/min): 50.30 cps; Viscosity Var. % ([2]; speed 25 g/min): -58.4%; Viscosity, time 0-24 ([2]; speed 25 g/min): 41.5 cps; Viscosity Var. % ([2]; speed 33.6 g/min): -60%; Viscosity, time 0-24 ([2]; speed 33.6 g/min): 28.70 cps; Viscosity Var. % ([2]; speed 44.3 g/min): -56.6%; Viscosity, time 0-24 ([2]; speed 44.3 g/min): 22.4 cps; Viscosity Var. % ([2]; speed 56.1 g/min): -51.9%; Viscosity, time 0-24 ([2]; speed 56.1 g/min): 14.50 cps; Viscosity Var. % ([2]; speed 77.9 g/min): -60.9%; Viscosity, time 0-24 ([2]; speed 77.9 g/min): 10.7 cps; Viscosity Var. % ([2]; speed 113.2 g/min): -63.8%; Viscosity, time 0-24 ([2]; speed 113.2 g/min): 6.7 cps; Viscosity Var. % ([2]; speed 152 g/min): -68.1%; Viscosity, time 0-24 ([2]; speed 152 g/min): 5.2 cps; Viscosity Var. % ([2]; speed 200 g/min): -66.7%; Viscosity, time 0-24 ([2]; speed 200 g/min): 4.0 cps; Viscosity Var. % ([2]; speed 266.8 g/min): -71.8%; Viscosity, time 0-24 ([2]; speed 266.8 g/min): 2.4 cps; Viscosity Var. % ([2]; speed 352 g/min): -68.9%; Viscosity, time 0-24 ([2]; speed 352 g/min): 1.9 cps; LD50 (Acute toxicity, rabbit): ~3500 mg/kg; LD50 (Acute toxicity, rat; iv): > 5000 mg/kg; LD50 (Acute toxicity, rat; po): > 5000 mg/kg; Viscosity Var. % ([3]; speed 17.4 g/min): -100%; Viscosity, time 0-24 ([3]; speed 17.4 g/min): 0 cps; Viscosity Var. % ([3]; speed 25 g/min): -81.7%; Viscosity, time 0-24 ([3]; speed 25 g/min): 0.88 cps; Viscosity Var. % ([3]; speed 33.6 g/min): -78.6%; Viscosity, time 0-24 ([3]; speed 33.6 g/min): 1.97 cps; Viscosity Var. % ([3]; speed 44.3 g/min): -71.5%; Viscosity, time 0-24 ([3]; speed 44.3 g/min): 2.00 cps; Viscosity Var. % ([3]; speed 56.1 g/min): -67.6%; Viscosity, time 0-24 ([3]; speed 56.1 g/min): 2.43 cps; Viscosity Var. % ([3]; speed 77.9 g/min): -53.6%; Viscosity, time 0-24 ([3]; speed 77.9 g/min): 2.55 cps; Viscosity Var. % ([3]; speed 113.2 g/min): -37.7%; Viscosity, time 0-24 ([3]; speed 113.2 g/min): 2.25 cps; Viscosity Var. % ([3]; speed 152 g/min): -36.3%; Viscosity, time 0-24 ([3]; speed 152 g/min): 2.18 cps; Viscosity Var. % ([3]; speed 200 g/min): -41.4%; Viscosity, time 0-24 ([3]; speed 200 g/min): 2.04 cps; Viscosity Var. % ([3]; speed 266.8 g/min): -39.2%; Viscosity, time 0-24 ([3]; speed 266.8 g/min): 1.94 cps; Viscosity Var. % ([3]; speed 352 g/min): -37.4%; Viscosity, time 0-24 ([3]; speed 352 g/min): 1.91 cps; Mucoproduction at hours 0 - 4 ([1]; 2.5 mg/kg i.v.): 52.760 ± 20.29 mg/h; Mucoproduction at hours 0 - 4 ([1]; 5 mg/kg i.v.): 37.650 ± 0.231 mg/h; Mucoproduction at hours 0 - 4 ([1]; 10 mg/kg i.v.): 49.250 ± 6.020 mg/h; Mucoproduction at hours 0 - 4 ([1]; 100 mg/kg os): 34.320 ± 5.850 mg/h; Mucoproduction at hours 0 - 4 ([1]; 200 mg/kg os): 86.250 ± 10.80 mg/h; Mucoproduction at hours 0 - 4 ([1]; 400 mg/kg os): 30.730 ± 7.630 mg/h; change in vivo at 2.5 mg/kg ([1]; Oryctolagus cuniculus, iv, 2.5 mg/kg i.v., 0-4 h vs -4-0 h, read-out: Mucoproduction Var. %): 32%; change in vivo at 5 mg/kg ([1]; Oryctolagus cuniculus, iv, 5 mg/kg i.v., 0-4 h vs -4-0 h, read-out: Mucoproduction Var. %): 34.6%; change in vivo at 10 mg/kg [1, 4]: 71%; change in vivo at 100 mg/kg ([1]; Oryctolagus cuniculus, po, 100 mg/kg os, 0-4 h vs -4-0 h, read-out: Mucoproduction Var. %): 16.3%; change in vivo at 200 mg/kg ([1]; Oryctolagus cuniculus, po, 200 mg/kg os, 0-4 h vs -4-0 h, read-out: Mucoproduction Var. %): 51.2%; change in vivo at 400 mg/kg [1, 5]: 97.6%
